Laboratory results reported in US20250195628A1, “ANALYTICAL METHOD AND THERAPEUTICAL AGENT FOR USE IN COMBINATION WITH L-ASPARAGINASE IN TUMOUR THERAPY” (Medizinische Hochschule Hannover, priority 2022, published 2025).

Tests used:
[1] = system: Cas9-expressing Jurkat cells; assay: Cell viability after UBR2 knock-out by sgRNA and L-asparaginase treatment, Jurkat; assay type: cell-based, human; conditions: 100 U/L L-asparaginase, 48 h, versus sgAAVS1, FIG. 4A
Experimental: (§1) Cas9-expressing Jurkat cells or T-ALL cells (CCRF-CEM) were treated with sgRNA that specifically knocked-out UBR2 (sgUBR2 #3, […], SEQ ID NO: 3) or control sgRNA directed against the safe harbor control locus AAVS1 (sgAAVS1, 5′-[…]-3′, SEQ ID NO: 4), and after knock-out of UBR2 cells were incubated under cell-culture conditions with 100 U/L L-asparaginase (Asp) or PBS as control agent (Vehicle). Cell viability was analysed by Trypan blue exclusion after 48 h of incubation.
(§2) FIG. 4A for Jurkat cells, FIG. 4B for the T-ALL cells depict the cell viability normalized to the cell viability for Vehicle. […] P-values reflect the comparison of control inhibitor (AAVS1) and inhibitor of UBR2 (sgUBR2), calculated using a two-way ANOVA with Sidak's adjustments for multiple comparisons.

[2] = system: T-ALL cells (CCRF-CEM); assay: Cell viability after UBR2 knock-out by sgRNA and L-asparaginase treatment, CCRF-CEM; assay type: cell-based, human; conditions: 100 U/L L-asparaginase, 48 h, versus sgAAVS1, FIG. 4B
Experimental: as §1, §2

Substance: sgUBR2 #3: sgRNA that specifically knocked-out UBR2, GAAACTTGAAATAGTCTAAA, SEQ ID NO: 3 (listed as DNA, chemistry not given here)
- effect on sensitivity for L-asparaginase (cell viability normalized to Vehicle) [1]: increased the sensitivity
- effect on sensitivity for L-asparaginase (cell viability normalized to Vehicle) [2]: increased the sensitivity
